Experimental data as given in US5626867A, “Liposomes with a negative excess charge” (Max-Planck Gesellschaft zur Forderung der Wissenschaften …, priority 1992, dated 1997).

How the values were obtained:
[1] = in vivo; settings: mouse, iv, 5.7 mg/kg
Protocol: Female NMR-I mice (28-32 g, 6-8 weeks) were obtained from the Animal Breeding Institute, Hannover Germany. The same doses (5.7 mg/kg) were injected in each case into the cordal vein of the mice. Each treatment group was composed of 3 animals. After 1, 24 and 72 hours the mice were anaesthetized with CO2. Blood was collected from the mice by puncture of the heart and stored in heparinized Eppendorf vessels. Tissue samples from the mice (liver, heart etc.) were rinsed in 0.9% NaCl solution and stored at -70° C.
In order to detect doxorubicin and its metabolites in the individual organs, the tissue samples (about 200 mg in each case) were homogenized with a micro-dismembrator (Braun Melsungen AG, Germany). Doxorubicin and its metabolites were treated with an extraction solution at pH 3 (16.5% w/v AgNO3 in acetonitrile/water; 6:4, v/v), in order to release the anthracyclines from a complex with DNA and to precipitate the proteins. After addition of an internal standard (epirubicin) and centrifugation, the supernatant was applied directly to the HPLC column.

[2] = in vivo; design: species or system NMR-I mice; settings: mouse, iv, 5.7 mg/kg
Protocol: Each treatment group was composed of 3 animals. […] The plasma samples were analyzed by the procedure of Mross et al., (J. Chromatograph. 530 (1990), 192-199). […] The columns were dried for 10 minutes at 10 mbar. […] The residue was taken up in 50 μl (0.02 mol/l Na phosphate/acetonitrile, pH 3.9; 7:3, v/v) and analyzed by means of HPLC using a 4.6 mm×25 cm Merck Lichrocart C 18 RP 5 μm column. The flow rate was 1.5 ml/min. The excitation wavelength was 480 nm and the emission wavelength was 580 nm.

[3] = clinical use; cited from earlier work

## COc1cccc2c1C(=O)c1c(O)c3c(c(O)c1C2=O)C[C@@](O)(C(=O)CO)C[C@@H]3O[C@H]1C[C@H](N)[C@H](O)[C@H](C)O1 [free doxorubicin, doxorubicin]
[1]
  remaining at 1 h: 23%
[2]
  concentration at 1 h: 500 ng/mL
[3]
  cardiac toxicity: high cardiac toxicity
